Laboratory results taken from patent US10526295B2, “Nuclear transport modulators and uses thereof” (Karyopharm Therapeutics Inc., priority 2015, dated 2020).

What was measured:
Type in all cases: cell-based
[1] = system: 3T3 cells; experiment: MTT cell proliferation assay (3T3); settings: Mus musculus, NIH3T3; 3T3 fibroblast cells; approximately 64-72 hours incubation; 1 nM to 30 μM
Method: (§1) The MTT cell proliferation assay was used to study the cytotoxic properties of the compounds. The assay was performed according to the method described by Roche Molecular Biochemicals, with minor modifications. The assay is based on the cleavage of the tetrazolium salt, MTT, in the presence of an electron-coupling reagent. The water-insoluble formazan salt produced must be solubilized in an additional step. Cells grown in a 96-well tissue culture plate were incubated with the MTT solution for approximately 4 hours. After this incubation period, a water-insoluble formazan dye formed. After solubilization, the formazan dye was quantitated using a scanning multi-well spectrophotometer (ELISA reader). […] The cells were seeded at 5,000-10,000 cells in each well of 96-well plate in 100 μL of fresh culture medium and were allowed to attach overnight. The stock solutions of the compounds were diluted in 100 μL cell culture medium to obtain eight concentrations of each test compound, ranging from 1 nM to 30 μM. […] All optical densities were measured at 490 nm using a Vmax Kinetic Microplate Reader (Molecular Devices). In most cases, the assay was performed in duplicate and the results were presented as a mean percent inhibition to the negative control±SE. The following formula was used to calculate the percent of inhibition: Inhibition (%)=(1−(ODo/OD))×100.
(§2) The compounds were tested against Z138, MM1S and 3T3 cells. The Z138 cell line is a mature B-cell acute lymphoblastic leukemia cell line derived from a patient with chronic lumphocytic leukemia. The MM1S cell line was established from the peripheral blood of a human multiple myeloma patient. 3T3 cells are standard fibroblast cells; they were originally isolated from Swiss mouse embryo tissue.

[2] = system: MM1S cells; experiment: MTT cell proliferation assay (MM1S); settings: Homo sapiens, MM1.S; MM1S multiple myeloma cells; approximately 64-72 hours incubation; 1 nM to 30 μM
Method: as §1, §2

[3] = system: Z138 cells; experiment: MTT cell proliferation assay (Z138); settings: Homo sapiens, Z-138, approximately 64-72 hours incubation, 1 nM to 30 μM
Method: as §1, §2

IC50 [2]	SMILES	IC50 [1]	IC50 [3]
0.1 to 5 µM	NC(=O)/C(=C/n1cnc(-c2cc(C(F)(F)F)cc(C(F)(F)F)c2)n1)c1cccc(S(=O)(=O)N2CCC(F)(F)CC2)c1 [Compound 122, (E)-3-(3-(3,5-bis(trifluoromethyl)phenyl)-1H-1,2,4-triazol-1-yl)-2-(3-(4,4-difluoropiperidin-1-ylsulfonyl)phenyl)acrylamide]	> 30 µM	0.1 to 5 µM
> 30 µM	NC(=O)/C(=C/n1cnc(-c2cc(C(F)(F)F)cc(C(F)(F)F)c2)n1)c1cccc(S(=O)(=O)N2CCC(F)(F)C2)c1 [Compound 128, (E)-3-(3-(3,5-bis(trifluoromethyl)phenyl)-1H-1,2,4-triazol-1-yl)-2-(3-(3,3-difluoropyrrolidin-1-ylsulfonyl)phenyl)acrylamide]	0.1 to 5 µM	0.1 to 5 µM

Continued, compound first:

SMILES	IC50 [2]	IC50 [1]	IC50 [3]
NC(=O)/C(=C/n1cnc(-c2cc(C(F)(F)F)cc(C(F)(F)F)c2)n1)c1cccc(S(=O)(=O)N2CC(F)C2)c1 [Compound 123, (E)-3-(3-(3,5-bis(trifluoromethyl)phenyl)-1H-1,2,4-triazol-1-yl)-2-(3-(3-fluoroazetidin-1-ylsulfonyl)phenyl)acrylamide]	0.1 to 5 µM	> 30 µM	0.1 to 5 µM
CN1CCN(S(=O)(=O)c2cccc(/C(=C\n3cnc(-c4cc(C(F)(F)F)cc(C(F)(F)F)c4)n3)C(N)=O)c2)CC1 [Compound 124, (E)-3-(3-(3,5-bis(trifluoromethyl)phenyl)-1H-1,2,4-triazol-1-yl)-2-(3-(4-methylpiperazin-1-ylsulfonyl)phenyl)acrylamide]	0.1 to 5 µM	> 30 µM	0.1 to 5 µM
NC(=O)/C(=C/n1cnc(-c2cc(C(F)(F)F)cc(C(F)(F)F)c2)n1)c1cccc(S(=O)(=O)N2CCCC2)c1 [Compound 125, (E)-3-(3-(3,5-bis(trifluoromethyl)phenyl)-1H-1,2,4-triazol-1-yl)-2-(3-(pyrrolidin-1-ylsulfonyl)phenyl)acrylamide]	0.1 to 5 µM	> 30 µM	0.1 to 5 µM
NC(=O)/C(=C/n1cnc(-c2cc(C(F)(F)F)cc(C(F)(F)F)c2)n1)c1cccc(S(=O)(=O)N2CCC(C(F)(F)F)CC2)c1 [Compound 126, (E)-3-(3-(3,5-bis(trifluoromethyl)phenyl)-1H-1,2,4-triazol-1-yl)-2-(3-(4-(trifluoromethyl)piperidin-1-ylsulfonyl)phenyl)acrylamide]	5 to 30 µM	> 30 µM	0.1 to 5 µM
NC(=O)/C(=C/n1cnc(-c2cc(C(F)(F)F)cc(C(F)(F)F)c2)n1)c1cccc(S(=O)(=O)N2CCC2)c1 [Compound 127, (E)-2-(3-(azetidin-1-ylsulfonyl)phenyl)-3-(3-(3,5-bis(trifluoromethyl)phenyl)-1H-1,2,4-triazol-1-yl)acrylamide]	0.1 to 5 µM	0.1 to 5 µM	0.1 to 5 µM
